Values quoted from earlier work, collected in paper PMC5752104 (Bioorganic & medicinal chemistry, 2017).

Key:
GPR55 = GPR55 (Homo sapiens, UniProt Q9Y2T6)
GPR55, sequence (Q9Y2T6 whole entry): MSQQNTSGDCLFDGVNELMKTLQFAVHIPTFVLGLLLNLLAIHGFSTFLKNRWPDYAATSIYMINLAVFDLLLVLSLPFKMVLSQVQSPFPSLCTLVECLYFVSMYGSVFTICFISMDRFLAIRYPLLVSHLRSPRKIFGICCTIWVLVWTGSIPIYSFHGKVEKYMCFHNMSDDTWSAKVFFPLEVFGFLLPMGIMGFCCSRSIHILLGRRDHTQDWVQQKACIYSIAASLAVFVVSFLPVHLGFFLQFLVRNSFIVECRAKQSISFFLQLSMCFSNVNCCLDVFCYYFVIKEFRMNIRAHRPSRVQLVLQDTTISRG
GPR55, sequence (P32121 whole entry partner): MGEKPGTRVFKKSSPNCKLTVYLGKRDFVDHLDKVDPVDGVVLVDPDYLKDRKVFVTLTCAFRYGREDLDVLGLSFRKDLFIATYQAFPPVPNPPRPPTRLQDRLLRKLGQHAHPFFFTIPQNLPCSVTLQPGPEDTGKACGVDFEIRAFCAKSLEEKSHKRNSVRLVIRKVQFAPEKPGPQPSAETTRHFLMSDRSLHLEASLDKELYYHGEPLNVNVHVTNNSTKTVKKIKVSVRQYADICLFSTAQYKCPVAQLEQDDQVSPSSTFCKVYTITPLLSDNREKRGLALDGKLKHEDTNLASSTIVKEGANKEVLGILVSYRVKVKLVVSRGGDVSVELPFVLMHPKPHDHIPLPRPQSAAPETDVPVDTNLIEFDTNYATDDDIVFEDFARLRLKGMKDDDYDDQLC

Row | SMILES | effect at GPR55 (GPR55) | activity at CB1 (CB1) | activity at GPR35 (GPR35) | activity at CB2 (CB2)
1 | CCCCCCC(C)(C)c1ccc([C@@H]2C[C@H](O)CC[C@H]2CCCO)c(O)c1 [CP55940] | acts as an antagonist | – | – | –
2 | COc1ccccc1/C=C/C(=O)NC(=S)Nc1ccc(S(=O)(=O)N(C)c2ccccc2)cc1 [6fv, (E)-3-(2-Methoxyphenyl)-N-((4-(N-methyl-N-phenylsulfamoyl)phenyl)carbamothioyl)acrylamide] | – | no activity | no activity | no activity
3 | Cc1c(C(=O)NN2CCCCC2)nn(-c2ccc(Cl)cc2Cl)c1-c1ccc(I)cc1 [AM251] | strongly activates GPR55 | – | – | –
